Data published in patent US6962713B2, “Spot-on formulations for combating parasites” (Merial, priority 1919, dated 2005).
Several values for one entry are separate records, joined by “and”; a condition that tells them apart may be missing. Equal values may be shown once.

Key:
[1] = system: gastrointestinal nematodes; details: Ivomec subcutaneous, 400 μg.kg^−1 of ivermectin, dog; known; cited from earlier work
[2] = Plasma kinetics of ivermectin after subcutaneous injection of Ivomec to dogs; format: in vivo, dog; details: for Plasma concentrations of ivermectin / Plasma concentrations of ivermectin, Mean: Ivomec subcutaneous 400 μg.kg^−1, dogs
Protocol: This study was conducted in order to assess the pharmacokinetics of ivemectin in the dog after subcutaneous administration of Ivomec® at a dose of 400 μg.kg^−1 of ivermectin which is known to be effective on gastrointestinal nematodes and to have a route of reference for further development.
Five male Beagle dogs were injected a subcutaneous dose of 400 μg.kg^−1 of ivermectin. Blood samples were collected at intervals up to 56 days post-dosing. The determination of ivermectin in dog plasma was carried out by HPLC, using fluorescence detection after derivatization. The limit of quantification was 100 pg.ml^−1.

[3] = Plasma kinetics of ivermectin after oral administration of Cardomec to dogs; format: in vivo, dog; details: Cardomec oral 6 μg.kg^−1, 5 fasted dogs; mean
Protocol: Five male Beagle dogs received a dose of approximately 6 μg.kg^−1 of ivermectin, i.e., one 68 μg Cardomec® tablet per dog. The animals were fasted prior to administration and up to 6 hours after treatment to prevent a possible interaction with food.
Blood samples were collected at intervals up to 28 days post-dosing. The determination of ivermectin in dog plasma was carried out by HPLC using fluorescence detection after derivatization. The limit of quantification was 100 pg.ml^−1.

[4] = Ivomec subcutaneous 400 μg.kg^−1, 5 dogs, mean
[5] = Ivomec subcutaneous, dose 400 pg.kg^−1 [sic], individual dogs

In the case of ivermectin, the “effective on gastrointestinal nematodes” value [1] is given as “effective”, the “AUC(0-t), Mean” value [2, 4] is given as 226900 pg·days/mL and the “AUC(0-∞), Mean” value [2, 4] is given as 227897 pg·days/mL. For the same substance, the “Cmax, Mean” value [2, 4] was 28.935 ng/mL and ~30 ng/mL, the “Plasma concentrations of ivermectin” value ([2]; 0, individual dogs) was “BLQ (The limit of quantification was 100 pg.ml^−1)” and the “Plasma concentrations of ivermectin, Mean” value (shortened to “Plasma concentrations … Mean”) ([2]; 0, mean of 5 dogs) was “BLQ (The limit of quantification was 100 pg.ml^−1)”. The “Plasma concentrations of ivermectin” value ([2]; 0.25 h, individual dogs) was 275 pg.ml^−1 and BLQ (The limit of quantification was 100 pg.ml^−1) (2×) and 158 pg.ml^−1 and 1123 pg.ml^−1, the “Plasma concentrations … Mean” value ([2]; 0.25 h, mean of 5 dogs (BLQ taken as 0)) was 0.311 ng/mL and the “Plasma concentrations of ivermectin” value ([2]; 0.5 h, individual dogs) was 531 pg.ml^−1 and BLQ (The limit of quantification was 100 pg.ml^−1) (2×) and 183 pg.ml^−1 and 1757 pg.ml^−1. The “Plasma concentrations … Mean” value ([2]; 0.5 h, mean of 5 dogs (BLQ taken as 0)) was 0.494 ng/mL, the “Plasma concentrations of ivermectin” value ([2]; 1 h, individual dogs) was 952 pg.ml^−1 and BLQ (The limit of quantification was 100 pg.ml^−1) and 272 pg.ml^−1 and 1487 pg.ml^−1 and 257 pg.ml^−1 and the “Plasma concentrations … Mean” value ([2]; 1 h, mean of 5 dogs (BLQ taken as 0)) was 0.594 ng/mL. For the same substance, the “Plasma concentrations of ivermectin” value ([2]; 4 h, individual dogs) was 3148 pg/mL and 935 pg/mL and 2519 pg/mL and 2788 pg/mL and 1621 pg/mL, the “Plasma concentrations … Mean” value ([2]; 4 h, mean of 5 dogs) was 2.202 ng/mL and the “Plasma concentrations of ivermectin” value ([2]; 10 h, individual dogs) was 9438 pg/mL and 2799 pg/mL and 7471 pg/mL and 6881 pg/mL and 2322 pg/mL. The “Plasma concentrations … Mean” value ([2]; 10 h, mean of 5 dogs) was 5.782 ng/mL, the “Plasma concentrations of ivermectin” value ([2]; 24 h, individual dogs) was 19192 pg/mL and 9322 pg/mL and 25996 pg/mL and 13986 pg/mL and 7730 pg/mL and the “Plasma concentrations … Mean” value ([2]; 24 h, mean of 5 dogs) was 15.245 ng/mL. The “Plasma concentrations of ivermectin” value ([2]; 32 h, individual dogs) was 21779 pg/mL and 11651 pg/mL and 28569 pg/mL and 18632 pg/mL and 11810 pg/mL, the “Plasma concentrations … Mean” value ([2]; 32 h, mean of 5 dogs) was 18.488 ng/mL and the “Plasma concentrations of ivermectin” value ([2]; 48 h, individual dogs) was 26256 pg/mL and 18359 pg/mL and 33716 pg/mL and 27200 pg/mL and 21450 pg/mL. For the same substance, the “Plasma concentrations … Mean” value ([2]; 48 h, mean of 5 dogs) was 25.396 ng/mL, the “Plasma concentrations of ivermectin” value ([2]; 56 h, individual dogs) was 23243 pg/mL and 18913 pg/mL and 33887 pg/mL and 20868 pg/mL and 22925 pg/mL and the “Plasma concentrations … Mean” value ([2]; 56 h, mean of 5 dogs) was 23.967 ng/mL. For the same substance, the “Plasma concentrations of ivermectin” value ([2]; D 3, individual dogs) was 23145 pg/mL and 23181 pg/mL and 38453 pg/mL and 22367 pg/mL and 25089 pg/mL, the “Plasma concentrations … Mean” value ([2]; D 3, mean of 5 dogs) was 26.447 ng/mL and the “Plasma concentrations of ivermectin” value ([2]; D 4, individual dogs) was 19498 pg/mL and 24875 pg/mL and 41257 pg/mL and 22550 pg/mL and 24955 pg/mL. The “Plasma concentrations … Mean” value ([2]; D 4, mean of 5 dogs) was 26.627 ng/mL, the “Plasma concentrations of ivermectin” value ([2]; D 5, individual dogs) was 13068 pg/mL and 21883 pg/mL and 28398 pg/mL and 21501 pg/mL and 21333 pg/mL and the “Plasma concentrations … Mean” value ([2]; D 5, mean of 5 dogs) was 21.237 ng/mL. For the same substance, the “Plasma concentrations of ivermectin” value ([2]; D 7, individual dogs) was 10892 pg/mL and 17800 pg/mL and 21415 pg/mL and 15434 pg/mL and 15695 pg/mL, the “Plasma concentrations … Mean” value ([2]; D 7, mean of 5 dogs) was 16.247 ng/mL and the “Plasma concentrations of ivermectin” value ([2]; D 9, individual dogs) was 5662 pg/mL and 12098 pg/mL and 11892 pg/mL and 10889 pg/mL and 12769 pg/mL. For the same substance, the “Plasma concentrations … Mean” value ([2]; D 9, mean of 5 dogs) was 10.662 ng/mL, the “Plasma concentrations of ivermectin” value ([2]; D 14, individual dogs) was 1924 pg/mL and 5269 pg/mL and 4248 pg/mL and 5752 pg/mL and 6285 pg/mL and the “Plasma concentrations … Mean” value ([2]; D 14, mean of 5 dogs) was 4.696 ng/mL. The “Plasma concentrations of ivermectin” value ([2]; D 21, individual dogs) was 162 pg/mL and 1034 pg/mL and 625 pg/mL and 746 pg/mL and 903 pg/mL, the “Plasma concentrations … Mean” value ([2]; D 21, mean of 5 dogs) was 0.694 ng/mL and the “Plasma concentrations of ivermectin” value ([2]; D 28, individual dogs) was “BLQ (The limit of quantification was 100 pg.ml^−1) (2×) and 190 pg.ml^−1 and 108 pg.ml^−1 and 119 pg.ml^−1”. The “Plasma concentrations … Mean” value ([2]; D 28, mean of 5 dogs (BLQ taken as 0)) was “BLQ (The limit of quantification was 100 pg.ml^−1)”, the “Plasma concentrations of ivermectin” value ([2]; D 35, individual dogs) was “BLQ (The limit of quantification was 100 pg.ml^−1)” and the “Plasma concentrations … Mean” value ([2]; D 35, mean of 5 dogs) was “BLQ (The limit of quantification was 100 pg.ml^−1)”. For the same substance, the tmax ([2]; Ivomec subcutaneous, 400 μg.kg^−1, individual dogs) was 2 d (2×) and 4 d (2×) and 3 d, the “AUC(0-t)” value [2, 5] was 161141 pg·days/mL and 224572 pg·days/mL and 291636 pg·days/mL and 225830 pg·days/mL and 231319 pg·days/mL and the “AUC(0-∞)” value [2, 5] was 161690 pg·days/mL and 225452 pg·days/mL and 294236 pg·days/mL and 226283 pg·days/mL and 231824 pg·days/mL. For the same substance, the Cmax [2, 5] was 26.256 ng/mL and 24.875 ng/mL and 41.257 ng/mL and 27.2 ng/mL and 25.089 ng/mL, the t½ [2, 5] was 56.4 h and 77 h and 69.1 h and 69.8 h and 70.6 h and the “AUC(0-t), Mean” value [3] was 1534 pg·days/mL.
